# Tests used:
# [1] = tested on: NCI-H226 cells; assay: Viability assay in NCI-H226 (Yap-dependent) cells, CyQUANT; assay type: cell-based; settings: Homo sapiens, 96 hour incubation
# Experimental: (§1) The ability of YAP-TEAD inhibitors to inhibit tumor cell growth was evaluated using two different cell lines: NCI-H226, which is a YAP dependent cell line, and SW620 cells, where YAP and TAZ were knocked out using CRISPR to generate a YAP independent cell line.
# (§2) For the assay, cells were treated in duplicates with the test compounds in a 10-point dose, 1:3 dilution steps, with the top concentration starting at 30 μM (final concentration in assay). After a 96 hour incubation at 37° C., 95% rH, and 5% CO2, a cell-permeant DNA-binding dye that stains only healthy cells (CyQUANT®, Promega) was added to the cells, allowing the quantification of cell viability.
# (§3) Cell Media: The NCI-H226 cells were cultured in the following media: RPMI 1640, +10% FBS, +1× GlutaMAX, +10 mM HEPES, +0.5% Pen/Strep. The SW620-KO cells were cultured in the following media: DMEM/F-12, +10% FBS, +1× GlutaMAX, +10 mM HEPES, +0.5% Pen/Strep.
# (§4) Reagents: The reagents used are listed below:
# (§5) Cell culture: The cells were examined using an inverted microscope to check for health, cell density, etc. To dissociate adherent cells, the monolayer of cells was washed once with pre-warmed PBS. After removing the PBS, 3 ml pre-warmed Accutase was added to a F75 flask, dispersed evenly and the flask was allowed to sit in incubator for ˜4-5 minutes.
# (§6) When a single cell suspension was obtained, 7 ml of prewarmed growth media was added and resuspended with the cells. The cell suspension was transferred to a sterile 15 ml conical centrifuge tube, and spun for 5 min at 300×g, RT. The supernatant was discarded and the pellet was resuspended in 10 ml of pre-warmed growth media.
# (§7) The total cell count was determined, and 20 μl of the desired cell number was added to each well of a 384 well plate using a Multidrop Combi. The plates were then incubated for 24 hours at 37° C., 95% rH, and 5% CO2.
# (§8) Compound treatment: 24 hours after seeding, the cells were treated with compounds.
# (§9) A 1:333 dilution of compounds, diluted in DMSO, was made to get a final concentration of 0.3% DMSO per well. To transfer the compounds to the assay plate, 120 nl was shot from Labcyte low dead volume plates to the cell plates containing 20 μl media/well with the ECHO 555 liquid handling system.
# (§10) After treatment, the cells were fed with 20 μl fresh pre-warmed assay media using a Multidrop combi.
# (§11) The assay plates were then incubated for 96 h at 37° C., 95% rH, and 5% CO2.
# (§12) 96h after treatment 30 μl of CyQuant® reagent was added to the assay plates using a Multidrop combi in the dark. The plates were then incubated for 1 hour at 37° C., 95% rH and 5% CO2. Thereafter, the assay plates were removed from the incubator and allowed to equilibrate to RT for 30 min in the dark without lid. Finally, they were measured using an EnVision microplate reader with a FITC bottom read program.
# (§13) Experimental data in the Viability assay of the compounds shown in Table 1 are shown in Table 3 below and classified in the following groups: […]
# [2] = tested on: YAP-TEAD interaction; assay: SK-HEP-1 reporter assay (8x TEAD responsive elements driving NanoLuc luciferase); assay type: cell-based; settings: Homo sapiens, SK-HEP1; SK-HEP-1 TEAD-NanoLuc reporter cells, 24 hour incubation, luciferase readout
# In short: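 SK-HEP-1 cells carrying stable 8× TEAD-element NanoLuc reporter, treated in duplicate with 10-point doses (top 30 μM final, 0.3% DMSO) for 24 h at 37 °C. Luciferase activity read by NanoGlo luminescence; IC50 values derived.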
# [3] = tested on: SW620 Yap KO cells; assay: Viability assay in SW620 Yap KO (Yap independent) cells, CyQUANT; assay type: cell-based; settings: Homo sapiens, SW-620, SW620 YAP/TAZ knock-out (YAP independent) cells, 96 hour incubation
# Experimental: as §1, §2, §3, §4, §5, §6, §7, §8, §9, §10, §11, §12, §13
Structure (SMILES),IC50 [1] [µM],IC50 [2] [nM],IC50 [3] [µM],melting point [°C]
"O=C(O)c1ccc2c(c1)c1cc(C(F)(F)F)ccc1n2-c1ccc(C(F)(F)F)cc1 [Compound 14, 6-(trifluoromethyl)-9-[4-(trifluoromethyl)phenyl]-9H-carbazole-3-carboxylic acid]",0.1 to 1,1 to 10,,292 to 294
"CNC(=O)c1ccc2c(c1)c1cc(C(C)C)ccc1n2-c1ccc(C(F)(F)F)cc1 [Compound 28, N-methyl-6-(propan-2-yl)-9-[4-(trifluoromethyl)phenyl]-9H-carbazole-3-carboxamide]",0.1 to 1,10 to 100,1 to 10,141 to 142
"Cc1ccc2c3cc(C(=O)O)ccc3n(-c3ccc(C(F)(F)F)cc3)c2c1 [Compound 20, 7-methyl-9-[4-(trifluoromethyl)phenyl]-9H-carbazole-3-carboxylic acid]",1 to 10,10 to 100,,250 to 252
"CNC(=O)c1ccc2c(c1)c1ccc(C)cc1n2-c1ccc(C(F)(F)F)cc1 [Compound 26, N,7-dimethyl-9-[4-(trifluoromethyl)phenyl]-9H-carbazole-3-carboxamide]",0.1 to 1,10 to 100,,230 to 232
"O=C(O)c1ccc2c(c1)c1cc(F)ccc1n2-c1ccc(C(F)(F)F)cc1 [Compound 11, 6-fluoro-9-[4-(trifluoromethyl)phenyl]-9H-carbazole-3-carboxylic acid]",0.1 to 1,10 to 100,,202 to 204
"O=C(O)c1ccc2c(c1)c1cc(Cc3ccccc3)ccc1n2-c1ccc(C(F)(F)F)cc1 [Compound 1, 6-benzyl-9-[4-(trifluoromethyl)phenyl]-9H-carbazole-3-carboxylic acid]",0.1 to 1,100 to 1000,> 10,
"CNC(=O)c1ccc2c(c1)c1cc(C(F)(F)F)ccc1n2-c1ccc(C(F)(F)F)cc1 [Compound 30, N-methyl-6-(trifluoromethyl)-9-[4-(trifluoromethyl)phenyl]-9H-carbazole-3-carboxamide]",1 to 10,10 to 100,,242 to 244
"O=C(O)c1ccc2c(c1)c1ccccc1n2-c1ccc(C(F)(F)F)cc1 [Compound 8, 9-[4-(trifluoromethyl)phenyl]-9H-carbazole-3-carboxylic acid]",0.1 to 1,10 to 100,> 10,
"O=C(O)c1cc2c3cccnc3n(-c3ccc(C(F)(F)F)cc3)c2cn1 [Compound 35, 8-[4-(trifluoromethyl)phenyl]-5,8,10-triazatricyclo[7.4.0.0^2,^7]trideca-1(9),2,4,6,10,12-hexaene-4-carboxylic acid]",0.1 to 1,10 to 100,,185 to 188
"CNC(=O)c1ccc2c(c1)c1nc(C(F)(F)F)ccc1n2-c1ccc(C(F)(F)F)cc1 [Compound 29, N-methyl-2-(trifluoromethyl)-5-[4-(trifluoromethyl)phenyl]-5H-pyrido[3,2-b]indole-8-carboxamide]",> 10,100 to 1000,,225 to 227

# Other lines, results leading:
IC50 [1] [µM],IC50 [2] [nM],IC50 [3] [µM],melting point [°C],Structure (SMILES)
0.001 to 0.1,1 to 10,> 10,,"Cc1ccc2c(c1)c1cc(C(=O)O)ccc1n2-c1ccc(C(F)(F)F)cc1 [Compound 10, 6-methyl-9-[4-(trifluoromethyl)phenyl]-9H-carbazole-3-carboxylic acid]"
0.1 to 1,1 to 10,,245 to 247,"COc1ccc2c(n1)c1cc(C(=O)O)ccc1n2-c1ccc(C(F)(F)F)cc1 [Compound 19, 2-methoxy-5-[4-(trifluoromethyl)phenyl]-5H-pyrido[3,2-b]indole-8-carboxylic acid]"
0.001 to 0.1,10 to 100,> 10,134 to 136,"CNC(=O)c1ccc2c(c1)c1nc(C)ccc1n2-c1ccc(C(F)(F)F)cc1 [Compound 22, N,2-dimethyl-5-[4-(trifluoromethyl)phenyl]-5H-pyrido[3,2-b]indole-8-carboxamide]"
0.001 to 0.1,1 to 10,> 10,,"Cc1cccc2c1c1cc(C(=O)O)ccc1n2-c1ccc(C(F)(F)F)cc1 [Compound 6, 5-methyl-9-[4-(trifluoromethyl)phenyl]-9H-carbazole-3-carboxylic acid]"
0.001 to 0.1,10 to 100,> 10,180 to 182,"CNC(=O)c1ccc2c(c1)c1nc(OC)ccc1n2-c1ccc(C(F)(F)F)cc1 [Compound 27, 2-methoxy-N-methyl-5-[4-(trifluoromethyl)phenyl]-5H-pyrido[3,2-b]indole-8-carboxamide]"
0.001 to 0.1,10 to 100,,160 to 162,"O=C(O)c1ccc2c(c1)c1nc(C(F)(F)F)ccc1n2-c1ccc(C(F)(F)F)cc1 [Compound 16, 2-(trifluoromethyl)-5-[4-(trifluoromethyl)phenyl]-5H-pyrido[3,2-b]indole-8-carboxylic acid]"
0.001 to 0.1,10 to 100,,270 to 272,"CNC(=O)c1ccc2c(c1)c1cc(F)ccc1n2-c1ccc(C(F)(F)F)cc1 [Compound 23, 6-fluoro-N-methyl-9-[4-(trifluoromethyl)phenyl]-9H-carbazole-3-carboxamide]"
0.001 to 0.1,1 to 10,,300,"Cc1ccc2c(n1)c1cc(C(=O)O)ccc1n2-c1ccc(C(F)(F)F)cc1 [Compound 17, 2-methyl-5-[4-(trifluoromethyl)phenyl]-5H-pyrido[3,2-b]indole-8-carboxylic acid]"
0.001 to 0.1,10 to 100,,270 to 272,"CNC(=O)c1ccc2c(c1)c1cc(C#N)ccc1n2-c1ccc(C(F)(F)F)cc1 [Compound 33, 6-cyano-N-methyl-9-[4-(trifluoromethyl)phenyl]-9H-carbazole-3-carboxamide]"
0.001 to 0.1,1 to 10,1 to 10,184 to 186,"CNC(=O)c1ccc2c(c1)c1cc(C)ccc1n2-c1ccc(C(F)(F)F)cc1 [Compound 21, N,6-dimethyl-9-[4-(trifluoromethyl)phenyl]-9H-carbazole-3-carboxamide]"
